Tests used:
[1] = tested on: breast tumor cells MCF7; conditions: FIG. 9; for transfection efficiency with pEGFP-N1-plasmid compared with Transfectam: mixtures with 70 mol % DOPE in ethanolic solutions, MCF7; for percentage of transfected cells after pre-complexing of the DNA with protamine sulfate: mixtures with 70 mol % DOPE, ethanolic, DNA pre-complexed with protamine sulfate versus not
Protocol: The day before the transfection 40-50000 cells were seeded per well in a 24-well cell culture plate (appr. 70% confluence). For the preparation of the complexes 4 μl of the ethanolic lipid reagent (30 mol % lipid #2 respectively #7; 70 mol % DOPE) were added to a solution of each 2 μg of the plasmid-DNA (pEGFP-N1; Clontech Laboratories, Inc; catalog-nr. 6085-1) in 300 μl fcs-free medium and were incubated at room temperature for 30 min. For the transfection in the presence of protamine sulfate 2 μg plasmid-DNA was pre-complexed with 2 μg protamine sulfate in 300 μl serum free medium for 10 min whereupon 4 μl of the lipid reagent were added. Shortly before the transfection the cell culture medium was replaced with 700 μl fresh medium (14.3% fcs). After addition of the lipid-DNA complexes and incubation of the cells for 48 hours the percentage of GFP expressing fluorescent cells was determined by FACS-analysis as described above.

[2] = tested on: different tumor cell lines (HeLa, Hec1a, SKOV3, MCF-7, Hey, SKBR3); conditions: lipids mixed with DOPE; all tested cell lines; versus Transfectam, Lipofectamine and DC-Chol; GFP and beta-galactosidase reporter plasmids; FIGS. 5 and 6
Text: In general: The cell lines used HeLa, Hec1a, SKOV3, MCF-7, Hey, SKBR3, T47D, 293 were cultivated according to standard ATCC conditions. Commercial transfection reagents Transfectam®, Lipofectamine™ und Superfect were used according to the manufacturer's instructions. DC-Chol was synthesized as described previously [L. Huang et al. Biochem. Biophys. Res. Commun. 179(1) (1991) 280-285] and was formulated with DOPE for the transfection experiments.
The day before the transfection 40-50000 cells were seeded per well in a 24-well cell culture plate (appr. 70% confluence). For the preparation of the complexes 3 μl (for SKBR3, MCF-7, Hey) respectively 6 μl (for HeLa, Hec1a, SKOV3) of the aqueous lipid reagent (30 mol % lipid #2 respectively #7 respectively #9; 70 mol % DOPE) were added to a solution of each 2 μg of the plasmid-DNA (pEGFP-N1; Clontech Laboratories, Inc; Katalog-Nr. 6085-1) in 300 μl of fcs-free medium and were incubated at room temperature for 30 min. Shortly before the transfection the cell culture medium was replaced with 700 μl fresh medium (14.3% fcs). After addition of the lipid-DNA complexes and incubation of the cells for 48 hours the percentage of GFP expressing fluorescent cells was determined by FACS-analysis. For this the cells were washed with PBS and were separated by trypsination and subsequent centrifugation. The thus obtained cell pellet was resuspended in 500 μl PBS and the percentage of fluorescent cells was determined by FACS-analysis using a FACScan device (Becton Dickinson).

[3] = tested on: eucaryotic cells; conditions: 10-100 μM chloroquine added to the cell culture medium; cited from earlier work

Structure (SMILES)	transfection efficiency with pEGFP-N1-plasmid compared with Transfectam [1]	percentage of transfected cells after pre-complexing of the DNA with protamine sulfate [1]	transfection efficiency compared with known lipid formulations [2]	effect on the efficiency of the cationic amphiphiles [3]
CCN(CC)CCN(CCNc1ccnc2cc(Cl)ccc12)C(=O)O[C@H]1CC[C@@]2(C)C(=CC[C@H]3[C@@H]4CC[C@H]([C@H](C)CCCC(C)C)[C@@]4(C)CC[C@@H]32)C1.Cl [#2, 7-chloro-4-[N^1-(N^4-carboxycholesteryl)-(N^7-diethyl)-1,4,7-triaza-heptyl]-quinoline Hydrochloride]	significantly more efficient	significant increase	higher efficiency	–
CC(C)CCC[C@@H](C)[C@H]1CC[C@H]2[C@@H]3CC=C4C[C@@H](OC(=O)N(CCCNc5ccnc6cc(Cl)ccc56)CCN(C)C)CC[C@]4(C)[C@H]3CC[C@]12C.Cl [#7, 7-chloro-4-[N^1-(N^5-carboxycholesteryl)-(N^8-dimethyl)-1,5,8-triaza-octyl]-quinoline Hydrochloride]	significantly more efficient	significant increase	higher efficiency	–
CCCCCCCC/C=C\CCCCCCCC(=O)OC[C@@H](CN(CCCNc1ccnc2cc(Cl)ccc12)CCN(C)C)OC(=O)CCCCCCC/C=C\CCCCCCCC [#9, 7-chloro-4-[N^1-(N^5-(2(R),3-dioleoyloxy)propyl)-(N^8-dimethyl)-1,5,8-triaza-octyl]-quinoline]	–	–	higher efficiency	–
CCN(CC)CCCC(C)Nc1ccnc2cc(Cl)ccc12 (centres unmarked) [chloroquine]	–	–	–	significantly increases the efficiency

Source: patent US20030109699A1, “Amphiphilic quinolylpolyamines as transfer agents for biologically active macromolecules” (priority 1999, published 2003)
